In US20250099427A1, “Drug and Method of Treating or Preventing Renal Disease Using Drug” (Showa University, priority 2018, published 2025):

Key:
Type in all cases: in vivo, mouse
[1] = tested on: Acute Renal Failure Animal Model; assay: Acute renal failure animal model, pathological tissue specimen (HE staining) lesion scores; details: 10 mg/kg
Method: 24 hours after the ischemia and reperfusion processes, urine was collected for 24 hours using a metabolic cage, measurement of body weight was conducted, and blood was collected. Thereafter, nephrectomy was conducted, and formalin-fixed kidney was permeated with paraffin using an automatic embedding device to produce a paraffin block. The paraffin block was sliced into 3 μm sections with a microtome, and placed on a slide glass. Then, the sections were stretched with a paraffin stretcher at 52° C., and sufficiently dried overnight in a paraffin melter at 37° C. After deparaffinization and washing with water, the sections were stained with a Mayer's hematoxylin staining solution for 1 minute and washed with running water for 15 minutes. Thereafter, the sections were stained with an eosin staining solution for 45 seconds, and dehydrated with 80% to 100% ethanol, followed by clearing with xylene and sealing with marinol. Each specimen was examined microscopically at a magnification of 50 using an optical microscope. With respect to tubular dilatation, tubular necrosis, and tubular casts in the cortex, outer zone of outer medulla, and inner zone of outer medulla, the percentage of lesions in each site was evaluated according to the following criteria.
In Table 12, the experimental results are expressed in mean±standard error in eight mice in each group. For comparison among multiple groups, firstly, one-way analysis of variance (ANOVA) was conducted, and then a Bonferroni test was conducted, if significant difference was recognized. Significant difference was recognized with a significance level of less than 5% (P<0.05).

[2] = tested on: Acute Renal Disease (Cisplatin Nephropathy) Animal Model; assay: Cisplatin nephropathy model, histopathological study (HE staining); details: 10 mg/kg 1 day after cisplatin
Method: (§1) In Tables 13 to 15, the experimental results are expressed in mean±standard error. The RT-PCR results were corrected with the amount of β-Actin as an endogenous control gene. With reference to statistically significant difference, an unpaired test between two groups (Student's t-test) was conducted for comparison between two groups, and one-way analysis of variance was conducted and then a Dunnett test was conducted for comparison among multiple groups. Further, in the histopathological study, a Mann-Whitney U test was conducted, and in all cases, a significance level of 5% or less (P<0.05) was regarded as significant difference.
10 mg/kg of SMTP-7 was administered 1 day after administration of cisplatin, and 3 days later, the kidney was isolated by the same method as in the evaluation of real time RT-PCR, and the histopathological study was conducted.
Formalin-fixed kidney was permeated with paraffin using an automatic embedding device to produce a paraffin block. The paraffin block was sliced into 3 μm sections with a microtome, and placed on a slide glass. Then, the sections were stretched with a paraffin stretcher at 52° C., and sufficiently dried overnight in a paraffin melter at 37° C. After deparaffinization and washing with water, the sections were stained with a Mayer's hematoxylin staining solution for 1 minute and washed with running water for 15 minutes. Thereafter, the sections were stained with an eosin staining solution for 45 seconds, and dehydrated with 80% to 100% ethanol, followed by clearing with xylene and sealing with marinol. Each specimen was examined microscopically at a magnification of 50 using an optical microscope. The degree of damage was examined microscopically at a magnification of 100 and 5 fields of view (1 field=2 mm, 5 fields=10 mm) and scored according to the following criteria. • Score 0: No significant change • Score 1: damage range 1 mm or less • Score 2: damage range 1 to 2 mm • Score 3: damage range 2 to 5 mm • Score 4: damage range 5 mm or more

[3] = tested on: Acute Renal Disease (Cisplatin Nephropathy) Animal Model; assay: Test using acute renal disease (cisplatin nephropathy) animal model, BUN and sCr; details: mean±SE
Method: A male ddY strain mouse (30 to 40 g) was used as an experimental animal. Under anesthesia with isoflurane, cisplatin (20 mg/kg) was injected into the femoral vein at a constant rate over 15 minutes to induce nephropathy. 3 days later, blood was collected from the descending vena cava, and after separating serum, blood urea nitrogen (BUN) and serum creatinine (sCr) were measured to evaluate renal function. Further, the kidney was isolated after perfusion, RNA was extracted, reverse transcription was conducted, real-time RT-PCR was conducted using the produced cDNA as a template, and the effect on TNF-α mRNA expression in renal tissues was also studied. A group to which physiological saline was administered instead of cisplatin was designated as the sham group.
In order to study the timing of administration, a drug (10 mg/kg) was injected into the femoral vein at a constant rate simultaneously with cisplatin, or 1 or 2 days later. In order to study dose relationship, a drug (0.1 mg/kg, 1 mg/kg, or 10 mg/kg) was injected to the femoral vein at a constant rate.
Further, in order to study the effect on TNF-α mRNA expression and histopathological study, a drug (10 mg/kg) was similarly administered 1 day after administration of cisplatin.
The collected blood was centrifuged at 3000 rpm for 15 minutes, serum was separated, and BUN and sCr were measured. In the measurement, BUN was measured using Urea B-test Wako (manufactured by Wako Pure Chemical Industries, Ltd.) and a QuantiChrom Urea Assay Kit (manufactured by Funakoshi Co., Ltd.), and sCr was measured using Lab Assay Creatinine (manufactured by Wako Pure Chemical Industries, Ltd.).
as §1

[4] = points 0 (no lesion) to 4 (severe, 50% or more), mean±SE, 8 mice
[5] = Score 1: damage range 1 mm or less
[6] = score 0 (no significant change) to 4 (damage range 5 mm or more), N 7
[7] = Administration one day later (1 day): 10 mg/kg femoral vein after cisplatin 20 mg/kg, timing study Table 13
[8] = Administration two days later (2 day): 10 mg/kg femoral vein after cisplatin 20 mg/kg
[9] = Coadministration: 10 mg/kg femoral vein simultaneously with cisplatin 20 mg/kg, blood 3 days after cisplatin
[10] = TNF-α study Table 15: 10 mg/kg 1 day after cisplatin
[11] = dose relationship study Table 14: 0.1 mg/kg femoral vein 1 day after cisplatin, 0.1 mg/kg
[12] = dose relationship study Table 14: 1 mg/kg femoral vein 1 day after cisplatin, 1 mg/kg
[13] = dose relationship study Table 14: 1 mg/kg femoral vein 1 day after cisplatin, listed as SMPT-7, 1 mg/kg
[14] = dose relationship study Table 14: 10 mg/kg femoral vein 1 day after cisplatin, 10 mg/kg
[15] = dose relationship study Table 14: 10 mg/kg femoral vein 1 day after cisplatin, listed as SMPT-7, 10 mg/kg

## CC(C)=CCC/C(C)=C/CC[C@@]1(C)Oc2c(c(O)cc3c2CN(CCC[C@@H](C(=O)O)N2Cc4c(cc(O)c5c4O[C@](C)(CC/C=C(\C)CCC=C(C)C)[C@@H](O)C5)C2=O)C3=O)C[C@@H]1O [SMTP-7]
[1]; compared to control group
  Histopathological changes (lesion changes), result in words: lesion changes other than the lesion change in tubular casts in the renal cortex were significantly improved
[1]; [4]
  Tubular cast score, Cortex: 0.9 ± 0.1
  Tubular cast score, Inner zone of outer medulla: 1.0 ± 0.2
  Tubular cast score, Outer zone of outer medulla: 0.9 ± 0.1
  Tubular dilatation score, Cortex: 2.0 ± 0.3
  Tubular dilatation score, Inner zone of outer medulla: 1.0 ± 0.2
  Tubular dilatation score, Outer zone of outer medulla: 1.4 ± 0.4
  Tubular necrosis score, Cortex: 0.4 ± 0.2
  Tubular necrosis score, Inner zone of outer medulla: 0.5 ± 0.2
  Tubular necrosis score, Outer zone of outer medulla: 0.4 ± 0.2
[2]; Score 0: No significant change
  Degeneration Necrosis, animals with Score 0: 2/7
  Regeneraed tubules, animals with Score 0: 7/7
  Tublar dilatatuon (Hyoline casts), animals with Score 0: 6/7
[2]; [5]
  Degeneration Necrosis, animals with Score 1: 2/7
  Tublar dilatatuon (Hyoline casts), animals with Score 1: 1/7
[2]; Score 2: damage range 1 to 2 mm
  Degeneration Necrosis, animals with Score 2: 1/7
[2]; Score 3: damage range 2 to 5 mm
  Degeneration Necrosis, animals with Score 3: 1/7
[2]; Score 4: damage range 5 mm or more
  Degeneration Necrosis, animals with Score 4: 1/7
[2]; compared to Control group
  Histopathological changes in the proximal tubules, result in words: the level was lower than that in the Control group and no significant difference was recognized
[2]; [6]
  Degeneration Necrosis, Mean score: 1.6
  Regeneraed tubules, Mean score: 0.0
  Tublar dilatatuon (Hyoline casts), Mean score: 0.1
[3]; [7]
  BUN: 44.5 ± 2.19 mg/dL
  sCr: 0.80 ± 0.07 mg/dL
[3]; [8]
  BUN: 74.2 ± 17.8 mg/dL
  sCr: 0.78 ± 0.18 mg/dL
[3]; [9]
  BUN: 66.3 ± 9.23 mg/dL
  sCr: 0.81 ± 0.09 mg/dL
[3]; [10]
  BUN: 55.9 ± 5.20 mg/dL
  sCr: 0.41 ± 0.07 mg/dL
[3]; [11]
  BUN: 57.0 ± 5.47 mg/dL
  sCr: 0.78 ± 0.08 mg/dL
[3]; [12]
  BUN: 45.0 ± 6.28 mg/dL
  sCr: 0.65 ± 0.09 mg/dL
[3]; [13]
  BUN: 45.0 ± 6.28 mg/dL
  sCr: 0.65 ± 0.09 mg/dL
[3]; [14]
  BUN: 32.1 ± 4.63 mg/dL
  sCr: 0.53 ± 0.03 mg/dL
[3]; [15]
  BUN: 32.1 ± 4.63 mg/dL
  sCr: 0.53 ± 0.03 mg/dL
